Laboratory results published in patent publication US12522602B2, “Derivatives having 2,3-dihydro-1H-indene or 2,3-dihydrobenzofuran moiety or pharmaceutically acceptable salt thereof and pharmaceutical compositions comprising the same” (YUHAN CORPORATION, priority 2019, dated 2026).

Test system: GM1 production in Jurkat cells
Test: cells
Assay type: cell-based
Settings: Homo sapiens, Jurkat, 72 h

`CC1(C)Cc2cc(-c3cc(C(F)(F)F)ccc3Cl)ccc2C1NC(=O)O[C@@H]1CN2CCC1CC2` (stereo partly drawn) [Example 221, (S)-quinuclidin-3-yl (5-(2-chloro-5-(trifluoromethyl)phenyl)-2,2-dimethyl-2,3-dihydro-1H-inden-1-yl)carbamate] showed an IC50 of 16.9 nM.
`COc1cc(F)cc(-c2ccc3c(c2)CC(C)(C)C3NC(=O)O[C@@H]2CN3CCC2CC3)c1` (stereo partly drawn) [Example 222, (S)-quinuclidin-3-yl (5-(3-fluoro-5-methoxyphenyl)-2,2-dimethyl-2,3-dihydro-1H-inden-1-yl)carbamate] was tested, and the IC50 was 25.6 nM.
For `Cc1ccc(Cl)c(-c2ccc3c(c2)CC(C)(C)C3NC(=O)O[C@@H]2CN3CCC2CC3)c1` (stereo partly drawn) [Example 223, (S)-quinuclidin-3-yl (5-(2-chloro-5-methylphenyl)-2,2-dimethyl-2,3-dihydro-1H-inden-1-yl)carbamate], the IC50 was 5.2 nM.
`COc1cc(-c2ccc3c(c2)CC(C)(C)C3NC(=O)O[C@@H]2CN3CCC2CC3)cc(C(F)(F)F)c1` (stereo partly drawn) [Example 224, (S)-quinuclidin-3-yl (5-(3-methoxy-5-(trifluoromethyl)phenyl)-2,2-dimethyl-2,3-dihydro-1H-inden-1-yl)carbamate] was tested, and the IC50 was 18.8 nM.
`CC1(C)Cc2cc(-c3ccc(F)cc3Cl)ccc2C1NC(=O)O[C@@H]1CN2CCC1CC2` (stereo partly drawn) [Example 225, (S)-quinuclidin-3-yl (5-(2-chloro-4-fluorophenyl)-2,2-dimethyl-2,3-dihydro-1H-inden-1-yl)carbamate] was tested, and the IC50 was 21.3 nM.
Work on `COc1cc(-c2ccc3c(c2)CC(C)(C)C3NC(=O)O[C@@H]2CN3CCC2CC3)ccc1F` (stereo partly drawn) [Example 226, (S)-quinuclidin-3-yl (5-(4-fluoro-3-methoxyphenyl)-2,2-dimethyl-2,3-dihydro-1H-inden-1-yl)carbamate] yielded an IC50 of 57 nM.
`Cc1ccc(-c2ccc3c(c2)CC(C)(C)C3NC(=O)O[C@@H]2CN3CCC2CC3)cc1C` (stereo partly drawn) [Example 227, (S)-quinuclidin-3-yl (5-(3,4-dimethylphenyl)-2,2-dimethyl-2,3-dihydro-1H-inden-1-yl)carbamate] gave an IC50 of 10.2 nM.
For `Cc1cc(F)ccc1-c1ccc2c(c1)CC(C)(C)C2NC(=O)O[C@@H]1CN2CCC1CC2` (stereo partly drawn) [Example 228, (S)-quinuclidin-3-yl (5-(4-fluoro-2-methylphenyl)-2,2-dimethyl-2,3-dihydro-1H-inden-1-yl)carbamate], the IC50 was 48.6 nM.
`CC1(C)Cc2cc(-c3ccc(C(F)(F)F)cc3F)ccc2C1NC(=O)O[C@@H]1CN2CCC1CC2` (stereo partly drawn) [Example 229, (S)-quinuclidin-3-yl (5-(2-fluoro-4-(trifluoromethyl)phenyl)-2,2-dimethyl-2,3-dihydro-1H-inden-1-yl)carbamate] was tested, and the IC50 was 56.2 nM.
`COc1ccc(F)c(-c2ccc3c(c2)CC(C)(C)C3NC(=O)O[C@@H]2CN3CCC2CC3)c1` (stereo partly drawn) [Example 230, (S)-quinuclidin-3-yl (5-(2-fluoro-5-methoxyphenyl)-2,2-dimethyl-2,3-dihydro-1H-inden-1-yl)carbamate] was tested, and the IC50 was 30.8 nM.
For `COc1cccc(-c2ccc3c(c2)CC(C)(C)C3NC(=O)O[C@@H]2CN3CCC2CC3)c1F` (stereo partly drawn) [Example 231, (S)-quinuclidin-3-yl (5-(2-fluoro-3-methoxyphenyl)-2,2-dimethyl-2,3-dihydro-1H-inden-1-yl)carbamate], the IC50 was 24.3 nM.
With `COc1ccc(C(C)C)cc1-c1ccc2c(c1)CC(C)(C)C2NC(=O)O[C@@H]1CN2CCC1CC2` (stereo partly drawn) [Example 232, (S)-quinuclidin-3-yl (5-(5-isopropyl-2-methoxyphenyl)-2,2-dimethyl-2,3-dihydro-1H-inden-1-yl)carbamate] the IC50 was 12.5 nM.
In the case of `Cc1ccc(-c2ccc3c(c2)CC(C)(C)C3NC(=O)O[C@@H]2CN3CCC2CC3)c(F)c1` (stereo partly drawn) [Example 233, (S)-quinuclidin-3-yl (5-(2-fluoro-4-methylphenyl)-2,2-dimethyl-2,3-dihydro-1H-inden-1-yl)carbamate], the IC50 is reported as 23.3 nM.
For `COc1ccc(F)cc1-c1ccc2c(c1)CC(C)(C)C2NC(=O)O[C@@H]1CN2CCC1CC2` (stereo partly drawn) [Example 234, (S)-quinuclidin-3-yl (5-(5-fluoro-2-methoxyphenyl)-2,2-dimethyl-2,3-dihydro-1H-inden-1-yl)carbamate], the IC50 was 13.6 nM.
